Earlier results as cited in patent US20250281408A1, “AMORPHOUS SOLID DISPERSIONS AND PHARMACEUTICAL COMPOSITIONS COMPRISING THE SAME” (Shenzhen Pharmacin Co., Ltd., priority 2022, published 2025).
Where two headings read alike, the source gives them in different places. Values belong to the compound of their own block, whether it stands above or below them.

Key:
[1] = relative to fasted conditions, healthy subjects
[2] = fed conditions
[3] = high-fat or low-fat meal

solubility in water: very poorly water soluble
SMILES: CC(=O)O[C@H]1CC[C@@]2(C)C(=CC[C@@H]3[C@@H]2CC[C@]2(C)C(c4cccnc4)=CC[C@@H]32)C1 [Abiraterone Acetate]

increase of AUC by a high-fat meal [1]: 57%
increase of Cmax by a high-fat meal [1]: 41%
solubility in aqueous solution / aqueous media: practically insoluble
SMILES: COc1cc2nccc(Oc3ccc(NC(=O)C4(C(=O)Nc5ccc(F)cc5)CC4)cc3)c2cc1OC [Cabozantinib]

solubility in water: poor water solubility
SMILES: CC1(C)CCC(CN2CCN(c3ccc(C(=O)NS(=O)(=O)c4ccc(NCC5CCOCC5)c([N+](=O)[O-])c4)c(Oc4cnc5[nH]ccc5c4)c3)CC2)=C(c2ccc(Cl)cc2)C1 [Venetoclax]

absolute bioavailability [2]: 37%
solubility in aqueous solution / aqueous media: very hard to dissolve
SMILES: CCc1cc2c(cc1N1CCC(N3CCOCC3)CC1)C(C)(C)c1[nH]c3cc(C#N)ccc3c1C2=O [alectinib]

solubility in water: very slightly soluble
SMILES: O=C1[C@@H]2[C@H]3CC[C@H](C3)[C@@H]2C(=O)N1C[C@@H]1CCCC[C@H]1CN1CCN(c2nsc3ccccc23)CC1 [lurasidone]

increase in AUC with food [3]: approximately 2 fold
increase in Cmax with food [3]: approximately 2 fold
solubility in aqueous media (above pH 4): practically insoluble
solubility in aqueous media (pH 1): very slightly soluble
SMILES: Cc1ccc(Nc2nccc(N(C)c3ccc4c(C)n(C)nc4c3)n2)cc1S(N)(=O)=O [pazopanib]

solubility in water: very slightly soluble
SMILES: N#Cc1ccc2[nH]cc(CCCCN3CCN(c4ccc5oc(C(N)=O)cc5c4)CC3)c2c1 [vilazodone]
